Results as given in ChEMBL document CHEMBL2331210, “New 2-benzylsulfanyl-nicotinic acid based 1,3,4-oxadiazoles: their synthesis and biological evaluation” (2013).
Converted amounts (≈) assume the structure as drawn.

Experiments:
UO-31 = test: Antitumor activity against human UO31 cells assessed as cell growth at 0.1 uM; format: functional; settings: read-out: Activity
TK-10 = test: Antitumor activity against human TK10 cells assessed as cell growth at 0.1 uM; format: functional; settings: read-out: Activity
SN12C = test: Antitumor activity against human SN12C cells assessed as cell growth at 0.1 uM; format: functional; settings: read-out: Activity
RXF 393 = test: Antitumor activity against human RXF393 cells assessed as cell growth at 0.1 uM; format: functional; settings: read-out: Activity
ACHN = test: Antitumor activity against human ACHN cells assessed as cell growth at 0.1 uM; format: functional; settings: read-out: Activity
CAKI-1 = test: Antitumor activity against human CAKI-1 cells assessed as cell growth at 0.1 uM; format: functional; settings: read-out: Activity
A498 = test: Antitumor activity against human A498 cells assessed as cell growth at 0.1 uM; format: functional; settings: read-out: Activity
SK-OV-3 = test: Antitumor activity against human SKOV3 cells assessed as cell growth at 0.1 uM; format: functional; settings: read-out: Activity
NCI/ADR-RES = test: Antitumor activity against human NCI/ADR-RES cells assessed as cell growth at 0.1 uM; format: functional; settings: read-out: Activity
OVCAR-8 = test: Antitumor activity against human OVCAR8 cells assessed as cell growth at 0.1 uM; format: functional; settings: read-out: Activity
OVCAR-5 = test: Antitumor activity against human OVCAR5 cells assessed as cell growth at 0.1 uM; format: functional; settings: read-out: Activity
OVCAR-3 = test: Antitumor activity against human OVCAR3 cells assessed as cell growth at 0.1 uM; format: functional; settings: read-out: Activity
OVCAR-4 = test: Antitumor activity against human OVCAR4 cells assessed as cell growth at 0.1 uM; format: functional; settings: read-out: Activity
IGROV-1 = test: Antitumor activity against human IGROV1 cells assessed as cell growth at 0.1 uM; format: functional; settings: read-out: Activity
UACC-62 = test: Antitumor activity against human UACC62 cells assessed as cell growth at 0.1 uM; format: functional; settings: read-out: Activity
UACC-257 = test: Antitumor activity against human UACC257 cells assessed as cell growth at 0.1 uM; format: functional; settings: read-out: Activity
SK-MEL-5 = test: Antitumor activity against human SK-MEL-5 cells assessed as cell growth at 0.1 uM; format: functional; settings: read-out: Activity
SK-MEL-28 = test: Antitumor activity against human SK-MEL-28 cells assessed as cell growth at 0.1 uM; format: functional; settings: read-out: Activity
MDA-MB-435 = test: Antitumor activity against human MDA-MB-435 cells assessed as cell growth at 0.1 uM; format: functional; settings: read-out: Activity
M14 = test: Antitumor activity against human M14 cells assessed as cell growth at 0.1 uM; format: functional; settings: read-out: Activity
Malme-3M = test: Antitumor activity against human MALME-3M cells assessed as cell growth at 0.1 uM; format: functional; settings: read-out: Activity
LOX IMVI = test: Antitumor activity against human LOXIMVI cells assessed as cell growth at 0.1 uM; format: functional; settings: read-out: Activity
U-251 = test: Antitumor activity against human U251 cells assessed as cell growth at 0.1 uM; format: functional; settings: read-out: Activity
SNB-75 = test: Antitumor activity against human SNB75 cells assessed as cell growth at 0.1 uM; format: functional; settings: read-out: Activity
SF-539 = test: Antitumor activity against human SF539 cells assessed as cell growth at 0.1 uM; format: functional; settings: read-out: Activity
SNB-19 = test: Antitumor activity against human SNB19 cells assessed as cell growth at 0.1 uM; format: functional; settings: read-out: Activity
SF-295 = test: Antitumor activity against human SF295 cells assessed as cell growth at 0.1 uM; format: functional; settings: read-out: Activity
SF-268 = test: Antitumor activity against human SF268 cells assessed as cell growth at 0.1 uM; format: functional; settings: read-out: Activity
SW-620 = test: Antitumor activity against human SW620 cells assessed as cell growth at 0.1 uM; format: functional; settings: read-out: Activity
KM12 = test: Antitumor activity against human KM12 cells assessed as cell growth at 0.1 uM; format: functional; settings: read-out: Activity
HCT-15 = test: Antitumor activity against human HCT15 cells assessed as cell growth at 0.1 uM; format: functional; settings: read-out: Activity
HT-29 = test: Antitumor activity against human HT-29 cells assessed as cell growth at 0.1 uM; format: functional; settings: read-out: Activity
HCT-116 = test: Antitumor activity against human HCT116 cells assessed as cell growth at 0.1 uM; format: functional; settings: read-out: Activity
[1] = Antitumor activity against human HCC2998 cells assessed as cell growth at 0.1 uM; format: functional; settings: HCC 2998, read-out: Activity
NCI-H460 = test: Antitumor activity against human NCI-H460 cells assessed as cell growth at 0.1 uM; format: functional; settings: read-out: Activity
NCI-H522 = test: Antitumor activity against human NCI-H522 cells assessed as cell growth at 0.1 uM; format: functional; settings: read-out: Activity
NCI-H23 = test: Antitumor activity against human NCI-H23 cells assessed as cell growth at 0.1 uM; format: functional; settings: read-out: Activity
NCI-H226 = test: Antitumor activity against human NCI-H226 cells assessed as cell growth at 0.1 uM; format: functional; settings: read-out: Activity
HOP-62 = test: Antitumor activity against human HOP62 cells assessed as cell growth at 0.1 uM; format: functional; settings: read-out: Activity
[2] = Antitumor activity against human EKVX cells assessed as cell growth at 0.1 uM; format: functional; settings: read-out: Activity
A549 = test: Antitumor activity against human A549/ATCC cells assessed as cell growth at 0.1 uM; format: functional; settings: read-out: Activity
SR = test: Antitumor activity against human SR cells assessed as cell growth at 0.1 uM; format: functional; settings: read-out: Activity
MOLT-4 = test: Antitumor activity against human MOLT4 cells assessed as cell growth at 0.1 uM; format: functional; settings: read-out: Activity
RPMI-8226 = test: Antitumor activity against human RPMI8226 cells assessed as cell growth at 0.1 uM; format: functional; settings: read-out: Activity
K562 = test: Antitumor activity against human K562 cells assessed as cell growth at 0.1 uM; format: functional; settings: read-out: Activity
HL-60 = test: Antitumor activity against human HL60(TB) cells assessed as cell growth at 0.1 uM; format: functional; settings: read-out: Activity
CCRF-CEM = test: Antitumor activity against human CCRF-CEM cells assessed as cell growth at 0.1 uM; format: functional; settings: read-out: Activity
[3] = test system: Mycobacterium tuberculosis; test: Antitubercular activity against Mycobacterium tuberculosis H37Rv assessed as growth inhibition after 12 to 28 days by L.J. agar MIC method; format: functional
Aspergillus clavatus = test: Antimicrobial activity against Aspergillus clavatus MTCC 1323 assessed as growth inhibition measured after overnight incubation by broth dilution method; format: functional
Aspergillus niger = test: Antimicrobial activity against Aspergillus niger MTCC 282 assessed as growth inhibition measured after overnight incubation by broth dilution method; format: functional
Candida albicans = test: Antimicrobial activity against Candida albicans MTCC 227 assessed as growth inhibition measured after overnight incubation by broth dilution method; format: functional
Pseudomonas aeruginosa = test: Antimicrobial activity against Pseudomonas aeruginosa MTCC 2488 assessed as growth inhibition measured after overnight incubation by broth dilution method; format: functional
Escherichia coli = test: Antimicrobial activity against Escherichia coli MTCC 443 assessed as growth inhibition measured after overnight incubation by broth dilution method; format: functional
Streptococcus pyogenes = test: Antimicrobial activity against Streptococcus pyogenes MTCC 442 assessed as growth inhibition measured after overnight incubation by broth dilution method; format: functional
Staphylococcus aureus = test: Antimicrobial activity against Staphylococcus aureus MTCC 96 assessed as growth inhibition measured after overnight incubation by broth dilution method; format: functional
MDA-MB-468 = test: Antitumor activity against human MDA-MB-468 cells assessed as cell growth at 0.1 uM; format: functional; settings: read-out: Activity
T47D = test: Antitumor activity against human T47D cells assessed as cell growth at 0.1 uM; format: functional; settings: read-out: Activity
[4] = Antitumor activity against human Hs 578T cells assessed as cell growth at 0.1 uM; format: functional; settings: read-out: Activity
BT-549 = test: Antitumor activity against human BT549 cells assessed as cell growth at 0.1 uM; format: functional; settings: read-out: Activity
MDA-MB-231 = test: Antitumor activity against human MDA-MB-231/ATCC cells assessed as cell growth at 0.1 uM; format: functional; settings: read-out: Activity
DU-145 = test: Antitumor activity against human DU145 cells assessed as cell growth at 0.1 uM; format: functional; settings: read-out: Activity
MCF7 = test: Antitumor activity against human MCF7 cells assessed as cell growth at 0.1 uM; format: functional; settings: read-out: Activity
PC-3 = test: Antitumor activity against human PC3 cells assessed as cell growth at 0.1 uM; format: functional; settings: read-out: Activity
SK-MEL-2 = test: cells; settings: Homo sapiens, SK-MEL-2, read-out: Activity
Description: Antitumor activity against human SK-MEL-2 cells assessed as cell growth at 0.1 uM

Compound: Cc1cnc(NC(=O)CSc2nnc(-c3cccnc3SCc3ccccc3)o2)s1
- growth at 0.1 µM (UO-31): 22.2%
- growth at 0.1 µM (TK-10): 82.3%
- growth at 0.1 µM (SN12C): 46.3%
- growth at 0.1 µM (RXF 393): 73%
- growth at 0.1 µM (ACHN): 66.5%
- growth at 0.1 µM (CAKI-1): 75.3%
- growth at 0.1 µM (A498): 73.7%
- growth at 0.1 µM (SK-OV-3): 96.2%
- growth at 0.1 µM (NCI/ADR-RES): 74%
- growth at 0.1 µM (OVCAR-8): 70.3%
- growth at 0.1 µM (OVCAR-5): 87.5%
- growth at 0.1 µM (OVCAR-3): 82.2%
- growth at 0.1 µM (OVCAR-4): 67%
- growth at 0.1 µM (IGROV-1): 58.5%
- growth at 0.1 µM (UACC-62): 71.7%
- growth at 0.1 µM (UACC-257): 94.9%
- growth at 0.1 µM (SK-MEL-5): 78%
- growth at 0.1 µM (SK-MEL-28): 106%
- growth at 0.1 µM (MDA-MB-435): 96.5%
- growth at 0.1 µM (M14): 84.1%
- growth at 0.1 µM (Malme-3M): 100%
- growth at 0.1 µM (LOX IMVI): 73.1%
- growth at 0.1 µM (U-251): 72.8%
- growth at 0.1 µM (SNB-75): 70.6%
- growth at 0.1 µM (SF-539): 85.5%
- growth at 0.1 µM (SNB-19): 65.3%
- growth at 0.1 µM (SF-295): 90.1%
- growth at 0.1 µM (SF-268): 59.1%
- growth at 0.1 µM (SW-620): 90%
- growth at 0.1 µM (KM12): 44.9%
- growth at 0.1 µM (HCT-15): 77.3%
- growth at 0.1 µM (HT-29): 81.6%
- growth at 0.1 µM (HCT-116): 82.4%
- growth at 0.1 µM [1]: 89.5%
- growth at 0.1 µM (NCI-H460): 81.1%
- growth at 0.1 µM (NCI-H522): 18.5%
- growth at 0.1 µM (NCI-H23): 80.6%
- growth at 0.1 µM (NCI-H226): 70.2%
- growth at 0.1 µM (HOP-62): 81.1%
- growth at 0.1 µM [2]: 72.1%
- growth at 0.1 µM (A549): 51%
- growth at 0.1 µM (SR): 67.9%
- growth at 0.1 µM (MOLT-4): 41.8%
- growth at 0.1 µM (RPMI-8226): 63.9%
- growth at 0.1 µM (K562): 77.2%
- growth at 0.1 µM (HL-60): 49.8%
- growth at 0.1 µM (CCRF-CEM): 37.8%
- growth inhibition (GI) [3]: 99%
- MIC ([3]; Mycobacterium tuberculosis, H37Rv): 50 µg/mL (≈ 110 µM)
- MIC (Aspergillus clavatus): 1000 µg/mL (≈ 2190 µM)
- MIC (Aspergillus niger): 1000 µg/mL (≈ 2190 µM)
- MIC (Candida albicans): 250 µg/mL (≈ 549 µM)
- MIC (Pseudomonas aeruginosa): 62.5 µg/mL (≈ 137 µM)
- MIC (Escherichia coli): 200 µg/mL (≈ 439 µM)
- MIC (Streptococcus pyogenes): 62.5 µg/mL (≈ 137 µM)
- MIC (Staphylococcus aureus): 125 µg/mL (≈ 274 µM)
- growth at 0.1 µM (MDA-MB-468): 57.5%
- growth at 0.1 µM (T47D): 37.5%
- growth at 0.1 µM [4]: 86.2%
- growth at 0.1 µM (BT-549): 75.7%
- growth at 0.1 µM (MDA-MB-231): 11%
- growth at 0.1 µM (DU-145): 58%
- growth at 0.1 µM (MCF7): 62.8%
- growth at 0.1 µM (PC-3): 46.4%
- growth at 0.1 µM (SK-MEL-2): 94%
